Data as given in patent publication US20040254173A1, “Modulation of dopamine responses with substituted (S)-2,3-benzodiazepines” (priority 2003, published 2004).

Test system: apomorphine-induced hypothermia, stereotypies and climbing
Assay: Low Dose Apomorphine Test in the mouse
Type: in vivo
Details: for STEREOTYPY (intensity score), 20 min after apomorphine, mean ± s.e.m. / STEREOTYPY (intensity score), 50 min after apomorphine, mean ± s.e.m.: 4 point scale (0-3); for CLIMBING (No. of mice), 20 minutes after apomorphine / CLIMBING (No. of mice), 50 minutes after apomorphine: 6 mice per group; for Rectal Temperature, 30 min after apomorphine, mean ± s.e.m. / Rectal Temperature, 60 min after apomorphine, mean ± s.e.m. / Rectal Temperature, before apomorphine, mean ± s.e.m. / effect on apomorphine-induced hypothermia: mouse; for Rectal Temperature, 30 min after apomorphine, mean change from control / Rectal Temperature, 60 min after apomorphine, mean change from control / STEREOTYPY (intensity score), 20 min after apomorphine, mean change from control / STEREOTYPY (intensity score), 50 min after apomorphine, mean change from control: vs vehicle
From the text: Racemic tofisopam, (R)-tofisopam and (S)-tofisopam were investigated in the Low Dose Apomorphine Test in the mouse to evaluate their pro- or anti-dopaminergic activity following intraperitoneal (i.p.) administration of apomorphine. Apomorphine, at a low dose, induces hypothermia, stereotypies and climbing. All three of these symptoms are potentiated by dopaminergic agonists and antagonized by dopamine antagonists, such as classical neuroleptics. The Low Dose Apomorphine Test, thus serves to detect pro- or antidopaminergic activity. The test was performed according to the protocols described by Chermat and Poncelet. See, Chermat R., Poncelet M., “Antagonisme des redressements, des stéréotypies et de l'hypotheimie induits par 1 ou 16 mg.kg-1 d'apomorphine,” J. Pharmacol., 14, 93-97, 1983.
Male mice of Rj: NMRI strain, 23-26 g body weight range were supplied by Elevage Janvier, 53940 Le Genest-Saint-Isle, France. The animals were delivered to the laboratory at least 3 days before the experiment and, upon arrival, were housed 10 per cage in macrolon cages (25×19×13 cm) containing wood shavings (Litalabo-SPPS, 95100 Argenteuil, France) with free access to food (UAR 113-UAR, 91360 Epinay-sur-Orge, France) and tap water (i.e. non-fasted) until tested. The animal house was maintained under artificial lighting (12 hours) between 7.00 and 19.00 in a controlled ambient temperature of 21±1° C., and relative humidity maintained at 40-70%.
The different treatments were equally distributed between the animals. During the experiment, each animal within a cage received the same treatment. Animals within a cage were individually marked on the tail with an indelible pen.
The experiment was conducted blind with treatment vials labeled A, B, C etc., according to a standardized coding procedure. The evaluation of the different treatments was balanced over time by testing successive series of individual animals from each treatment group in a fixed rotation (A, B, C, etc.). Animals were sacrificed at the end of the experiment by exposure to CO2.
Three compounds, racemic tofisopam, (R)-tofisopam and (S)-tofisopam were tested in the Low Dose Apomorphine Test. Each of these three compounds was dosed as a dispersion in 0.2% hydroxypropylmethylcellulose (HPMC) (Sigma), in sterile physiological saline (Laboratoire Aguettant).
Two reference standards were also dosed. Bromocriptine, methanesulfonate (Sigma), a known dopamine agonist, and haloperidol (Sigma), a known dopamine antagonist, were dispersed in 0.2% HPMC in sterile physiological saline.
Apomorphine hydrochloride, the dopamine mimetic employed in the assay, was dissolved in water for injectable preparation (Laboratoire Aguettant). Dosing: All of the dosed substances were administered in a volume of 10 ml/kg. The doses are expressed in mg/kg of supplied substance.
6 mice were studied per group. The test was performed blind.
Racemic tofisopam, (R)-tofisopam and (S)-tofisopam were administered at doses of 16, 32 and 64 mg/kg, administered intraperitonealy (i.p.), 30 minutes prior to administration of apomorphine.
The rectal temperature of the mice was measured prior to apomorphine dosing using a rectal probe (Physitemp Instruments Digital Laboratory Thermometer Model BAT-12). The mice were then placed in individual Plexiglas cages (10×6×4 cm) attached with the opening against a vertical wire grid.
The mice were then injected subcutaneously (s.c.) with apomorphine (1 mg/kg). Rectal temperature was measured 30 and 60 minutes after the injection of apomorphine.
The intensity of stereotypies (sniffing, licking, gnawing), were scored at 20 minutes and 50 minutes after injection of apomorphine on a 4 point scale (0-3). The presence (1) or absence (0) of climbing against the wire grid wall, were also assessed 20 and 50 minutes after injection of apomorphine.
The reference standards bromocriptine (16 mg/kg) and haloperidol (0.5 mg/kg), were administered under the same experimental conditions.

[1] = 16 mg/kg i.p. 30 min before apomorphine 1 mg/kg s.c.
[2] = 16 mg/kg i.p., 30 min after test substance
[3] = 32 mg/kg i.p. 30 min before apomorphine 1 mg/kg s.c.
[4] = 32 mg/kg i.p., 30 min after test substance
[5] = 64 mg/kg i.p. 30 min before apomorphine 1 mg/kg s.c.
[6] = 64 mg/kg i.p., 30 min after test substance
[7] = 0.5 mg/kg, before apomorphine 1 mg/kg s.c.

Molecule | STEREOTYPY (intensity score), 20 min after apomorphine, mean ± s.e.m. [1] | STEREOTYPY (intensity score), 50 min after apomorphine, mean ± s.e.m. [1] | CLIMBING (No. of mice), 20 minutes after apomorphine [1] | CLIMBING (No. of mice), 50 minutes after apomorphine [1] | Rectal Temperature, 30 min after apomorphine, mean ± s.e.m. [1] | Rectal Temperature, 60 min after apomorphine, mean ± s.e.m. [1] | Rectal Temperature, 30 min after apomorphine, mean change from control [1] | Rectal Temperature, 60 min after apomorphine, mean change from control [1] | STEREOTYPY (intensity score), 20 min after apomorphine, mean change from control [1] | STEREOTYPY (intensity score), 50 min after apomorphine, mean change from control [1] | Rectal Temperature, before apomorphine, mean ± s.e.m. [2] | STEREOTYPY (intensity score), 20 min after apomorphine, mean ± s.e.m. [3] | STEREOTYPY (intensity score), 50 min after apomorphine, mean ± s.e.m. [3] | CLIMBING (No. of mice), 20 minutes after apomorphine [3] | CLIMBING (No. of mice), 50 minutes after apomorphine [3] | Rectal Temperature, 30 min after apomorphine, mean ± s.e.m. [3] | Rectal Temperature, 60 min after apomorphine, mean ± s.e.m. [3] | Rectal Temperature, 30 min after apomorphine, mean change from control [3] | Rectal Temperature, 60 min after apomorphine, mean change from control [3] | STEREOTYPY (intensity score), 20 min after apomorphine, mean change from control [3] | further results
CC[C@H]1C(C)=NN=C(c2ccc(OC)c(OC)c2)c2cc(OC)c(OC)cc21 [(R)-tofisopam, (R)-1-(3,4-dimethoxyphenyl)-4-methyl-5-ethyl-7,8-dimethoxy-5H-2,3-benzodiazepine] | 2.8 ± 0.2 | 1.0 ± 0.3 | 6 No. of mice | 5 No. of mice | 35.1 ± 0.3 °C | 36.9 ± 0.2 °C | 0.0 °C | +0.2 °C | +0.6 | 0.0 | 37.3 ± 0.1 °C | 2.2 ± 0.2 | 1.0 ± 0.3 | 6 No. of mice | 4 No. of mice | 34.6 ± 0.4 °C | 36.6 ± 0.2 °C | −0.5 °C | −0.1 °C | 0.0 | STEREOTYPY (intensity score), 50 min after apomorphine, mean change from control [3]: 0.0; Rectal Temperature, before apomorphine, mean ± s.e.m. [4]: 37.1 ± 0.1 °C; STEREOTYPY (intensity score), 20 min after apomorphine, mean ± s.e.m. [5]: 1.5 ± 0.6; STEREOTYPY (intensity score), 50 min after apomorphine, mean ± s.e.m. [5]: 1.2 ± 0.3; CLIMBING (No. of mice), 20 minutes after apomorphine [5]: 3 No. of mice; CLIMBING (No. of mice), 50 minutes after apomorphine [5]: 2 No. of mice; Rectal Temperature, 30 min after apomorphine, mean ± s.e.m. [5]: 35.1 ± 0.4 °C; Rectal Temperature, 60 min after apomorphine, mean ± s.e.m. [5]: 36.5 ± 0.4 °C; Rectal Temperature, 30 min after apomorphine, mean change from control [5]: 0.0 °C; Rectal Temperature, 60 min after apomorphine, mean change from control [5]: −0.2 °C; STEREOTYPY (intensity score), 20 min after apomorphine, mean change from control [5]: −0.7; STEREOTYPY (intensity score), 50 min after apomorphine, mean change from control [5]: +0.2; Rectal Temperature, before apomorphine, mean ± s.e.m. [6]: 37.2 ± 0.1 °C; effect on apomorphine-induced hypothermia (16, 32 and 64 mg/kg i.p.): did not affect; effect on apomorphine-induced hypothermia, stereotypies or climbing (dose-range tested (16, 32, 64 mg/kg i.p.)): did not affect
O=C(CCCN1CCC(O)(c2ccc(Cl)cc2)CC1)c1ccc(F)cc1 [Haloperidol, haloperidol] | – | – | – | – | – | – | – | – | – | – | – | – | – | – | – | – | – | – | – | – | effect on apomorphine-induced stereotypies and climbing as well as hypothermia (0.5 mg/kg): significantly antagonized; STEREOTYPY (intensity score), 20 min after apomorphine, mean ± s.e.m. [7]: 0.0 ± 0.0; STEREOTYPY (intensity score), 50 min after apomorphine, mean ± s.e.m. [7]: 0.0 ± 0.0; CLIMBING (No. of mice), 20 minutes after apomorphine [7]: 0+ No. of mice; CLIMBING (No. of mice), 50 minutes after apomorphine [7]: 1 No. of mice; Rectal Temperature, 30 min after apomorphine, mean ± s.e.m. [7]: 37.0 ± 0.1 °C; Rectal Temperature, 60 min after apomorphine, mean ± s.e.m. [7]: 37.7 ± 0.1 °C; Rectal Temperature, 30 min after apomorphine, mean change from control [7]: +1.9 °C; Rectal Temperature, 60 min after apomorphine, mean change from control [7]: +1.0 °C; STEREOTYPY (intensity score), 20 min after apomorphine, mean change from control [7]: −2.2; STEREOTYPY (intensity score), 50 min after apomorphine, mean change from control [7]: −1.0; Rectal Temperature, before apomorphine, mean ± s.e.m. (0.5 mg/kg): 37.3 ± 0.1 °C; effect on apomorphine-induced hypothermia (0.5 mg/kg): significantly antagonized
Bromocriptine, methanesulfonate | 2.7 ± 0.2 | 1.0 ± 0.4 | 6 No. of mice | 2 No. of mice | 34.4 ± 0.4 °C | 35.0 ± 0.5 °C | −0.7 °C | −1.7 °C | +0.5 | 0.0 | 37.2 ± 0.2 °C | – | – | – | – | – | – | – | – | – | effect on apomorphine-induced stereotypies or climbing (16 mg/kg): did not significantly affect; effect on apomorphine-induced hypothermia (16 mg/kg): significantly potentiated
CC[C@@H]1C(C)=NN=C(c2ccc(OC)c(OC)c2)c2cc(OC)c(OC)cc21 [(S)-tofisopam, (S)-1-(3,4-dimethoxyphenyl)-4-methyl-5-ethyl-7,8-dimethoxy-5H-2,3-benzodiazepine] | 3.0 ± 0.0 | 0.7 ± 0.2 | 6 No. of mice | 3 No. of mice | 34.8 ± 0.4 °C | 37.2 ± 0.2 °C | −0.3 °C | +0.5 °C | +0.8 | −0.3 | 37.2 ± 0.3 °C | 2.3 ± 0.3 | 0.3 ± 0.2 | 6 No. of mice | 2 No. of mice | 34.4 ± 0.3 °C | 36.6 ± 0.2 °C | −0.7 °C | −0.1 °C | +0.1 | behaviour on apomorphine-induced hypothermia (rectal temperature) (16 mg/kg, sixty minutes after apomorphine, slight but statistically significant elevation in temperature): weak dopamine antagonist; behaviour on apomorphine-induced stereotypies (16 mg/kg, twenty minute time point): strong dopamine agonist; STEREOTYPY (intensity score), 50 min after apomorphine, mean change from control [3]: −0.7; Rectal Temperature, before apomorphine, mean ± s.e.m. [4]: 37.0 ± 0.2 °C; STEREOTYPY (intensity score), 20 min after apomorphine, mean ± s.e.m. [5]: 0.2 ± 0.2; STEREOTYPY (intensity score), 50 min after apomorphine, mean ± s.e.m. [5]: 0.2 ± 0.2; CLIMBING (No. of mice), 20 minutes after apomorphine [5]: 0+ No. of mice; CLIMBING (No. of mice), 50 minutes after apomorphine [5]: 0 No. of mice; Rectal Temperature, 30 min after apomorphine, mean ± s.e.m. [5]: 33.6 ± 0.7 °C; Rectal Temperature, 60 min after apomorphine, mean ± s.e.m. [5]: 33.3 ± 1.0 °C; Rectal Temperature, 30 min after apomorphine, mean change from control [5]: −1.5 °C; Rectal Temperature, 60 min after apomorphine, mean change from control [5]: −3.4 °C; STEREOTYPY (intensity score), 20 min after apomorphine, mean change from control [5]: −2.0; STEREOTYPY (intensity score), 50 min after apomorphine, mean change from control [5]: −0.8; Rectal Temperature, before apomorphine, mean ± s.e.m. [6]: 37.2 ± 0.2 °C; behaviour on apomorphine-induced stereotypies and climbing (64 mg/kg, twenty and fifty minute time points): strong dopamine antagonist; behaviour on apomorphine-induced hypothermia (rectal temperature) (higher doses (32, 64 mg/kg), thirty and sixty minute time points, lowering the rectal temperature): dopamine antagonism
